Structures can show the parent of a compound that is named as a salt. Values belong to the molecule of their own block, whether it stands above or below them.
Key:
isolated basilar artery [1] = assay: Relaxation of isolated basilar artery contracted by 50 mM KCl; type: cell-based, Mongrel dogs; details: Canis lupus familiaris, 50 mM KCl contraction; for inhibition at 1 µM: 10^-6 M; for inhibition at 0.1 µM: 10^-7 M; for inhibition at 0.01 µM: 10^-8 M; for EC50: relaxation of isolated basilar artery, read-out: ED50 (the source's name)
Description: (§1) Mongrel dogs of either sex (body weight 10-17 kg) were killed by bleeding under anesthetization with pentobarbital sodium (tradename: Nembutai ® Abbott Co., USA). Thereafter, the basilar and femoral arteries were extracted and attached blood and connective tissues were carefully removed in a dish filled with Krebs bicarbonate solution (composition: NaCl 117.7 mM, KC1 4.7 mM, CaCl2 2.5 mM, MgSo4 1.2 mM, glucose 10 mM, NaHCO3 24.4 mM). Thereafter, ring preparations were made therefrom. This preparation was suspended in a bathing tube of 10 ml filled with Krebs bicarbonate solution aerated with 95 % 02 and 5 % C02.
(§2) Then, samples of basilar and femoral arteries were contracted by application of 50 mM KC1. After confirming that the contraction was sustained, (a) compound (I) (erythro form) lactate, (b) compound (I) (threo form) lactate and (c) ifenprodil; [2-(4-benzyl- piperidino-l-(4-hydroxyphenyl)propane-l-ol] tartrate were, respectively, administered as test compounds and the dose-relaxation response was examined.
(§3) A strain gauge transducer (model SB-lT manufactured by Nihon Koden Co.) was employed for recording of change of tension and isometric contraction was recorded on a recorder (model QPD 53 made by Hitachi Ltd . ) .

isolated femoral artery [2] = assay: Relaxation of isolated femoral artery contracted by 50 mM KCl; type: cell-based, Mongrel dogs; details: Canis lupus familiaris, 50 mM KCl contraction; for inhibition at 100 µM: 10^-4 M; for inhibition at 10 µM: 10^-5 M; for inhibition at 1 µM: 10^-6 M; for inhibition at 0.1 µM: 10^-7 M; for EC50: relaxation of isolated femoral artery, read-out: ED50 (the source's name)
Description: as §1, §2, §3

ddY male mice [3] = assay: Prolongation of gasping time in complete cerebral ischemic (decapitated) animals; type: in vivo; details: for Ratio of time (%): prolongation as compared with the control group; for Duration time of gasping: decapitated after 30 minutes
Description: After 30 minutes from administration, the.mice were decapitated and the duration time of gasping was measured. The control group was drug-untreated.

ddY male mice [4] = assay: Thromboembolic respiratory depression induced by ADP; type: in vivo; details: ADP 40 mg/kg i.v.
Description: The degree of formation of platelet thrombi in the pulmonary vessels of mice induced by intravenous administration of ADP can be measured based on the decrease in the respiratory rate. The anti-platelet thrombotic action of test drugs can be evaluated by using this decrease in the respiratory rate as a standard. […] Relative respiratory rate (%) was calculated according to the following formula. [formula] (cf. "Thrombosis Research", Vol. 35, Page 311, 1984)

ddY male mice [5] = assay: Ameliorative activity against damage of cerebral hypoxia (reduced pressure); type: in vivo
Description: Thirty mg/kg each of compound (I) (lactate) and ifenprodil tartrate and 16 mg/kg of phentolamine, which is an a-adrenoceptor blocker, were intraperitoneally administered to ddY male mice, respectively. […] Time from start of reduction of pressure until stop of respiration in the mice was measured. The control group was drug-untreated.

isolated femoral artery [6] = assay: K-induced 45Ca influx in isolated femoral artery; type: cell-based, Mongrel dogs; details: 10^-5 M + 50 mM KCl
Description: (§4) Using the isolated basilar artery and femoral artery treated in accordance with Test Example 2, the activity of (a) compound (I) (lactate), (b) ifenprodil tartrate and (c) verapamil hydrochloride against ^45Ca influx and ^45Ca uptake were examined by the conventional method (J. Membran. Biol., vol. 59, page 19, 1981).

isolated femoral artery [7] = assay: K-induced 45Ca uptake in isolated femoral artery; type: cell-based, Mongrel dogs; details: 10^-5 M + 50 mM KCl; 50 mM KCl alone 586.0 ± 17.9
Description: as §4

isolated basilar artery [8] = assay: PGF2α-induced 45Ca uptake in isolated basilar artery; type: cell-based, Mongrel dogs; details: 10^-5 M + 10^-5 M PGF2α; PGF2α alone 166.2 ± 6.0
Description: as §4

platelets of rabbit = assay: Fluidity of platelet membrane (fluorescence polarization); type: cell-based; parameters: Fluorescence polarization: unit not given here; details: for Fluorescence polarization: fluidity increases as value decreases
Description: The activity of compound (I) (lactate) and ifenprodil tartrate against the fluidity of platelet membrane was examined according to a known method (Biochimica et Biophysica Acta, vol. 798, page 210, 1984) using platelets of rabbit and using n-butyl alcohol as a positive control.

- EC50 (isolated basilar artery [1]): 0.16 µM
- EC50 (isolated femoral artery [2]): 7.2 µM
Structure (SMILES): C[C@@H]([C@H](O)c1ccc(OCc2ccccc2)cc1)N1CCC(Cc2ccccc2)CC1 (relative stereo) [Compound (I) (erythro form) lactate]
- inhibition at 1 µM (isolated basilar artery [1]; mean, n = 4 - 5): 100%
- inhibition at 0.1 µM (isolated basilar artery [1]; mean, n = 4 - 5): 39.2%
- inhibition at 0.01 µM (isolated basilar artery [1]; mean, n = 4 - 5): 7%
- inhibition at 100 µM (isolated femoral artery [2]; mean, n = 4 - 5): 85.8%
- inhibition at 10 µM (isolated femoral artery [2]; mean, n = 4 - 5): 59.9%
- inhibition at 1 µM (isolated femoral artery [2]; mean, n = 4 - 5): 34.2%
- inhibition at 0.1 µM (isolated femoral artery [2]; mean, n = 4 - 5): 1.2%
- inhibition at 0.01 µM (isolated femoral artery [2]; 10^-8 M, mean, n = 4 - 5): 0.4%

- EC50 (isolated basilar artery [1]): 0.085 µM
- EC50 (isolated femoral artery [2]): 51 µM
Structure (SMILES): C[C@@H]([C@@H](O)c1ccc(OCc2ccccc2)cc1)N1CCC(Cc2ccccc2)CC1 (relative stereo) [Compound (I) (threo form) lactate]
- inhibition at 10 µM (isolated basilar artery [1]; 10^-5 M, mean, n = 4 - 5): 100%
- inhibition at 1 µM (isolated basilar artery [1]; mean, n = 4 - 5): 91.7%
- inhibition at 0.1 µM (isolated basilar artery [1]; mean, n = 4 - 5): 72.1%
- inhibition at 0.01 µM (isolated basilar artery [1]; mean, n = 4 - 5): 10.8%
- inhibition at 100 µM (isolated femoral artery [2]; mean, n = 4 - 5): 62.3%
- inhibition at 10 µM (isolated femoral artery [2]; mean, n = 4 - 5): 22.5%
- inhibition at 1 µM (isolated femoral artery [2]; mean, n = 4 - 5): 6.8%
- inhibition at 0.1 µM (isolated femoral artery [2]; mean, n = 4 - 5): 0%

Structure (SMILES): CC(C)(CO)[C@@H](O)C(=O)NCCCC(=O)O [Calcium hopantenate]
- Ratio of time (%) (ddY male mice [3]; 300 mg/kg i.p.): 10.5%
- Duration time of gasping (ddY male mice [3]; 300 mg/kg intraperitoneally): 23.1 ± 0.6 s

Structure (SMILES): COc1ccc([C@@H]2Sc3ccccc3N(CCN(C)C)C(=O)[C@@H]2OC(C)=O)cc1 [Diltiazem-HCl]
- Relative respiratory rate (%) (ddY male mice [4]; 10 mg/kg oral, 1 hr after administration): 56.3 ±8.5 (n=6) %
- Relative respiratory rate (%) (ddY male mice [4]; 10 mg/kg oral, 2 hr after administration): 38.3 ±7.3 (n=7) %

Structure (SMILES): OC[C@H]1OC(O)[C@H](O)[C@@H](O)[C@@H]1O (stereo partly shown) [Glucose]
- Ratio of time (%) (ddY male mice [3]; 5.4 g/kg i.p.): 10.5%
- Duration time of gasping (ddY male mice [3]; 5.4 g/kg intraperitoneally): 23.1 ± 0.6 s

Structure (SMILES): Cc1ccc(N(CC2=NCCN2)c2cccc(O)c2)cc1 [Phentolamine]
- Time required for stoppage of respiration (ddY male mice [5]; 16 mg/kg intraperitoneally, 30 minutes before, pressure reduced to 160 mmHg): 54.5 ± 2.9 s
- effect on survival time (cerebral hypoxia) (ddY male mice [5]; i.p., 30 mg/kg compound (I) and ifenprodil tartrate, 16 mg/kg phentolamine): shortens it

Structure (SMILES): Clc1ccccc1CN1CCc2sccc2C1 [Ticlopidine-HCl]
- Relative respiratory rate (%) (ddY male mice [4]; 30 mg/kg oral, 1 hr after administration, Compound (I) = erythro form): 49.3 ±4.3 (n=6) %
- Relative respiratory rate (%) (ddY male mice [4]; 30 mg/kg oral, 2 hr after administration, Compound (I) = erythro form): 33.9 ±7.0 (n=7) %
- Relative respiratory rate (%) (ddY male mice [4]; 30 mg/kg oral, 3 hr after administration, Compound (I) = erythro form): 37.2 ±10.5 (n=9) %

Structure (SMILES): COc1ccc(CCN(C)CCCC(C#N)(c2ccc(OC)c(OC)c2)C(C)C)cc1OC (stereo not shown) [Verapamil hydrochloride]
- K-induced ^45Ca influx in isolated femoral artery (isolated femoral artery [6]; pre-incubation 15 min, 50 mM KCl alone 94.6 ± 5.2): 76.7 ± 2.0 n mol/g wt. tissue
- K-induced ^45Ca influx in isolated femoral artery (isolated femoral artery [6]; pre-incubation 45 min, 50 mM KCl alone 98.4 ± 6.8): 29.8 ± 2.8 n mol/g wt. tissue
- K-induced ^45Ca influx in isolated femoral artery (isolated femoral artery [6]; pre-incubation 135 min): 64.1 ± 5.0 n mol/g wt. tissue
- K-induced ^45Ca uptake in isolated femoral artery (isolated femoral artery [7]): 344.7 ± 14.4 n mol/g wt. tissue
- PGF2α-induced ^45Ca uptake in isolated basilar artery (isolated basilar artery [8]): 134.0 ± 4.1 n mol/g wt. tissue

Structure (SMILES): CCCCO [n-Butyl alcohol, n-butyl alcohol]
- effect on fluidity of platelet membrane (platelets of rabbit): an increase in the fluitidy of platelet membrane
- Fluorescence polarization (platelets of rabbit; 21 µM): 7±5
- Fluorescence polarization (platelets of rabbit; 42 µM): 6±5
- Fluorescence polarization (platelets of rabbit; 62 µM): -14±2
